Assay [1] deals with 72 kDa type IV collagenase (Homo sapiens, UniProt P08253). Briefly: Dose Response validation of uHTS RPN11 inhibitor hits using a MMP-2 Fluorescence assay. It is filed as functional.
In assay [2] the target is 26S proteasome non-ATPase regulatory subunit 14 (Homo sapiens, UniProt O00487). Briefly: inhibition of proteasome subunit RPN11 – biochemical, fluorescence polarization, uHTS hits, confirmation (AID 602368). The class given is functional.
A short description of assay [3]: Luminescence Cell-Based Dose Confirmation HTS to Identify Inhibitors of Platelet Dense Granule Release. [Related pubchem assays: 1663 (Primary HTS), 1678 (Summary of Project)]. It is filed as functional.
A further assay addresses Prothrombin (Bos taurus, UniProt P00735). As to the kind of experiment: thrombin inhibition, dose response, biochemical, fluorescence polarization, uHTS hits (AID 602369). It is filed as functional. A general note: Polarisation of emitted light reports the rotation of a fluorescent probe.
For assay [4], the target named is Luciferin 4-monooxygenase (Photinus pyralis, UniProt P08659). Briefly: firefly luciferase enzyme inhibitors, dose response, biochemical, luminescence (AID 1891).
Assay [5] deals with Glucose-6-phosphate 1-dehydrogenase (Homo sapiens, UniProt P11413). As to the kind of experiment: human G6PD enzyme inhibitors, dose response, selectivity assay for P. falciparum G6PD inhibitor project, biochemical, fluorescence (AID 504792). The class given is functional.
Chain of Glucose-6-phosphate 1-dehydrogenase (P11413 whole entry): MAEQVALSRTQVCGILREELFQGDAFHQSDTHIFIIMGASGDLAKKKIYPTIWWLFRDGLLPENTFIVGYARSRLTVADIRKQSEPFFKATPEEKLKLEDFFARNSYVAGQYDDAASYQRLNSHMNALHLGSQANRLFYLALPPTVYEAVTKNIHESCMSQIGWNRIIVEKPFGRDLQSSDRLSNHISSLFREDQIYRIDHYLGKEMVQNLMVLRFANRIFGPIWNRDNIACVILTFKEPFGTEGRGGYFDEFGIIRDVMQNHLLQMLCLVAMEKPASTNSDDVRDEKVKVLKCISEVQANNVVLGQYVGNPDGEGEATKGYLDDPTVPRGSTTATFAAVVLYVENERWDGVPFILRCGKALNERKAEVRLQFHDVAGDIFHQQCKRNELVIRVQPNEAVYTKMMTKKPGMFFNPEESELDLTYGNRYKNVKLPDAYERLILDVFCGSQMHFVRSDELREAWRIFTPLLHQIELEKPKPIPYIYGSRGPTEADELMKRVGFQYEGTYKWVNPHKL
The next assay addresses Large T antigen (Simian virus 40, UniProt P03070). It is filed as functional, Betapolyomavirus macacae.
Assay [6] deals with T1, Zinc finger protein mex-5 (Caenorhabditis elegans, UniProt Q9XUB2).
T1 sequence (Q9XUB2 whole entry): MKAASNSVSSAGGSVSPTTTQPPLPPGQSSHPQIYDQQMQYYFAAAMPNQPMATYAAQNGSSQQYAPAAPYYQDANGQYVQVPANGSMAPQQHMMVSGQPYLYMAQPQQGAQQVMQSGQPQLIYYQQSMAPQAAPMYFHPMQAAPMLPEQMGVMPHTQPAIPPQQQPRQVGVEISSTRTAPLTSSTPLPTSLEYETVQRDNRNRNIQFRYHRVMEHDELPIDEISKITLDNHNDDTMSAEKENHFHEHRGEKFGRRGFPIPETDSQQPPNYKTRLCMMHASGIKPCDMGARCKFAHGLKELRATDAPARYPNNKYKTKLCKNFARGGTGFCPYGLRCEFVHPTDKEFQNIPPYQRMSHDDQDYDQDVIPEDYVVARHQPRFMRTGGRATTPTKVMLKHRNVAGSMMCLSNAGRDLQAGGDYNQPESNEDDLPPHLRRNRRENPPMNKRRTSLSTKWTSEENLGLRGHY
As to the kind of experiment: MEX-5/TCR-2 RNA interaction inhibitors, dose response, biochemical, C. elegans, fluorescence polarization (AID 1960).

The target in assay [7] is Intestinal-type alkaline phosphatase (Homo sapiens, UniProt P09923). As to the kind of experiment: human intestinal alkaline phosphatase activators, dose response, biochemical, luminescence, uHTS hits (AID 463120). It is filed as functional.
Chain of Intestinal-type alkaline phosphatase (P09923 whole entry): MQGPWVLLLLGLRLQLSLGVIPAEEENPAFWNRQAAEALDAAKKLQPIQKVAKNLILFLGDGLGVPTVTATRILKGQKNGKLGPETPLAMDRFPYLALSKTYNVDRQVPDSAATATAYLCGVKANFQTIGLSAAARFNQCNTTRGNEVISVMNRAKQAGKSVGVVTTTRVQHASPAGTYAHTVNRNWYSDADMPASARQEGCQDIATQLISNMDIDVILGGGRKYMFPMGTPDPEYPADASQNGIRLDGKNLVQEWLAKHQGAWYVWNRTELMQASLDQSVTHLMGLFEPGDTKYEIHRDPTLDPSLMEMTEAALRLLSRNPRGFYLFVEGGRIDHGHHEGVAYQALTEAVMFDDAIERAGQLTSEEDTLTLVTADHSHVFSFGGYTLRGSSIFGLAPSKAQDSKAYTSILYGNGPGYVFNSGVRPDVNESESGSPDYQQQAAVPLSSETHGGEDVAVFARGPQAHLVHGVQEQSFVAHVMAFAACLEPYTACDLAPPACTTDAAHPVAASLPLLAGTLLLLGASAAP
The target of assay [8] is T2, RNA-binding protein pos-1 (Caenorhabditis elegans, UniProt G5EF15).
T2 sequence (G5EF15 whole entry): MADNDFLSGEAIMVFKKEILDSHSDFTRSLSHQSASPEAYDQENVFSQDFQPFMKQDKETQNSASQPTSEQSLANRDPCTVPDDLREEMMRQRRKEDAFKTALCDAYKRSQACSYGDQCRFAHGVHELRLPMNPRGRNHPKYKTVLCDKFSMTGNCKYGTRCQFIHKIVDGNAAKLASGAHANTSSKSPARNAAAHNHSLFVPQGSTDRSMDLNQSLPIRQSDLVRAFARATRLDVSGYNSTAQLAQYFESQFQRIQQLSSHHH
Briefly: inhibitors of POS-1/mex-3 RNA binding, dose response, biochemical, fluorescence polarization (AID 1964).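 Further: purified POS-1 fused to maltose binding protein made in E. coli; potency of compounds blocking POS-1 binding to fluorescent RNA.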

The target in assay [9] is T3, Apoptotic protease-activating factor 1 (Homo sapiens, UniProt O14727).
T3 sequence (O14727 whole entry): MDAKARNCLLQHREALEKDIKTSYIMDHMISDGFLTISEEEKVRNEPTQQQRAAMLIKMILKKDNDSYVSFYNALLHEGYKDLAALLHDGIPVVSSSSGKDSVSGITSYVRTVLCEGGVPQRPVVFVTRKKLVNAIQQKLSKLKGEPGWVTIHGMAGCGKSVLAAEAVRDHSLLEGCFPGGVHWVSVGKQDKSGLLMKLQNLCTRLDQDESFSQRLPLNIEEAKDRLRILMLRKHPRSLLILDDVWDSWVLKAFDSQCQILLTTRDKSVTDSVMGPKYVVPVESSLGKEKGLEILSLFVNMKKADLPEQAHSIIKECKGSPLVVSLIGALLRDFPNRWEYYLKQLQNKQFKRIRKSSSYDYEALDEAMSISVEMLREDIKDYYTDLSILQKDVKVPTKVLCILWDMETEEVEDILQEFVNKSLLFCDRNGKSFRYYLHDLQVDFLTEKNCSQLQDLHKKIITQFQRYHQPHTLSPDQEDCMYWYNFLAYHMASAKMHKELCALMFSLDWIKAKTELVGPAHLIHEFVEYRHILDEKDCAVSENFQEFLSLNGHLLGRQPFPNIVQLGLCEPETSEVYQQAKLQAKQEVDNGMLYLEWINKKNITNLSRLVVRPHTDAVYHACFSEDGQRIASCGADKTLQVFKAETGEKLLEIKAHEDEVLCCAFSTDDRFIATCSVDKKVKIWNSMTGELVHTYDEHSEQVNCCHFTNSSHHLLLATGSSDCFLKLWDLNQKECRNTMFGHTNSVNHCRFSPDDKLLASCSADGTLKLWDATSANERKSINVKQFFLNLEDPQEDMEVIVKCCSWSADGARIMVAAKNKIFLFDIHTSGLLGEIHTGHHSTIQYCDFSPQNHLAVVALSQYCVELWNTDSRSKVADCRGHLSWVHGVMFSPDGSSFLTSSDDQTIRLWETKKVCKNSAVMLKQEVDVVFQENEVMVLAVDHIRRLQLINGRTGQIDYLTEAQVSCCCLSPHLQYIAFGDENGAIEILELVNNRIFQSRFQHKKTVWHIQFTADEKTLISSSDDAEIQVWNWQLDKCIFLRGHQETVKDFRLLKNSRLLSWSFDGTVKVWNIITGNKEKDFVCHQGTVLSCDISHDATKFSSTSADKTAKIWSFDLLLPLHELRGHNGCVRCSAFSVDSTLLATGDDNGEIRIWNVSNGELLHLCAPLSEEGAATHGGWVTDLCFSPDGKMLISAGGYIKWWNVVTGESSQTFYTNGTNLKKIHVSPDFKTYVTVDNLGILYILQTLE
The class given is functional.

A further assay has as its target T4, Streptokinase A (Streptococcus pyogenes serotype M1, UniProt P10520).
T4 sequence (P10520 whole entry): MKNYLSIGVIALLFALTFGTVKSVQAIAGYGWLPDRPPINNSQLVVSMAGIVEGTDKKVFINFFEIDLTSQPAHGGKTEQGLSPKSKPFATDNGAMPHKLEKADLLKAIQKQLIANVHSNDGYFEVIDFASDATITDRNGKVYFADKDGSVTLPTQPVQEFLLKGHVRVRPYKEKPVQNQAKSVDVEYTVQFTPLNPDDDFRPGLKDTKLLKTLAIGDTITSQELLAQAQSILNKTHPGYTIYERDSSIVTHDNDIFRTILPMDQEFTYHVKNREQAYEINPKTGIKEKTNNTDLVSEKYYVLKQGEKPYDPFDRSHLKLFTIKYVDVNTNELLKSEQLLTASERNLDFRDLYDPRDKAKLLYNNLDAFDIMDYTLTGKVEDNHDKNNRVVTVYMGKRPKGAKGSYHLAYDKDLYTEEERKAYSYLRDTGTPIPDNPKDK
Briefly: S. pyogenes streptokinase expression inhibitors, potency, dose response, plasminogen activation absorbance, OD405 (AID 1914).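 Further: secreted streptokinase activity via plasminogen activation per viability signal from cell pellet.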 The class given is functional, Streptococcus pyogenes M1 GAS.

The next assay deals with Streptococcus. As to the kind of experiment: Group A Streptococcus viability loss, dose response, counter-screen for streptokinase expression inhibitor project, luminescence, BacTiterGlo (AID 1915).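 Further: potency for reduction of bacterial viability or growth.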 It is filed as functional, organism-based. (In general: A counterscreen serves to expose hits that act by an unwanted route or on another target.)
The subject of assay [10] is Streptococcus sp. 'group A'. Briefly: growth inhibition of control SK(-) GAS strain, dose response, counter-screen for streptokinase expression inhibitor project, luminescence, kanamycin, BacTiterGlo, confirmation (AID 1900). It is filed as functional, organism-based.
In a further assay the target is Genome polyprotein (dengue virus type 2, UniProt P29990). Briefly: Dengue-2 NS5 methyltransferase inhibitors, primary screen, biochemical, confirmation dose response (AID 588689). It is filed as functional.
Assay [11] addresses DNA (cytosine-5)-methyltransferase 1 (Homo sapiens, UniProt P26358). Briefly: DNMT1 methyltransferase inhibitors, confirmation, biochemical, fluorescent molecular beacon (AID 602386). The class given is functional.
Assay [12] in a line: cytotoxicity in HEK-293T cells, dose response, cytotoxicity control for TCR NF-kB inhibitor project, luminescence, T-cell screen hits (AID 489026).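 Further: cells exposed to compound about 14 hours before the viability readout.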 The class given is functional, cell-based.
A further assay relates to INS1. Briefly: beta cell apoptosis inhibitors, cytokine rescue, dose response, luminescence, retest (AID 449756).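 Further: cell death triggered by IL-1 beta plus TNF-alpha plus IFN-gamma mixture; protective hits raise ATP signal compared with cytokine alone wells.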 The class given is functional, cell-based. The settings on record: Rattus norvegicus.
The test system of assay [13] is BJ. Briefly: cells. It is filed as functional, cell-based. Conditions: Homo sapiens.
A short description of assay [14]: cytotoxicity toward DRD oncogenic fibroblasts, dose response, cell-based, non-viral oncogenic, luminescence (AID 1934). It is filed as functional. Conditions: Homo sapiens.
Assay [15] has as its system BJ. As to the kind of experiment: cytotoxicity toward BJ-TERT-LT-ST fibroblasts, dose response, cell-based, RAS-independent, luminescence (AID 1935).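 Further: BJ fibroblasts immortalized with TERT plus LT and ST oncogenes.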 Conditions: Homo sapiens. The class given is functional.
The nature of assay [16]: cytotoxicity toward NIH3T3 fibroblasts, dose response, counter-screen, cell-based, ATP luminescence, mouse fibroblasts (AID 2010).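 Further: cells exposed to compound for about 90 hours before reading.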 The class given is functional.
The target of the next assay is Nonstructural protein 1 (Influenza A virus, UniProt Q194T2). The class given is functional, Influenza A virus (A/California/07/2009(H1N1)).
Chain of Nonstructural protein 1 (Q194T2 whole entry): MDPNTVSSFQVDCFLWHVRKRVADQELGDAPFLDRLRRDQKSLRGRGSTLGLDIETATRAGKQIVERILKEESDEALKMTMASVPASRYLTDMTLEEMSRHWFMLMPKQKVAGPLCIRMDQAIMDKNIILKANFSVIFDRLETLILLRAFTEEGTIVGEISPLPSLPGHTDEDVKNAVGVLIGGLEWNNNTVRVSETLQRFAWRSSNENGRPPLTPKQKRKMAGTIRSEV
The test system of assay [17] is BJ. As to the kind of experiment: cytotoxicity toward BJ-TERT fibroblasts, dose response, cell-based, RAS-independent, luminescence (AID 1933). Conditions: Homo sapiens. It is filed as functional.
Assay [18] in a line: inhibitors of intracellular T. cruzi replication, confirmation, NIH3T3 host cells, beta-gal luminescence (AID 2044).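 Further: intracellular parasites grown in NIH/3T3 mouse fibroblasts as host cells; luminescent beta-galactosidase reporter signal from transgenic T. cruzi replicating inside host cells; inhibitors lower the luminescence signal.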 It is filed as functional, cell-based.
Assay [19] in a line: Luminescence-based dose response cell-based high throughput screening assay for cytotoxic compounds using the IEC-6 intestinal epithelial cell line. [Related pubchem assays: 1858 (Summary AID.), 1825 (Counterscreen.), 1907 (Confirmation screen.)]. The class given is functional.

The values below come from ChEMBL document CHEMBL1201862, “PubChem BioAssay data set” (2004).

The structures appear in SMILES notation. The source made the active and inactive calls. A value given as a limit tells only on which side of the number the result lay.

Chain of 72 kDa type IV collagenase (P08253 whole entry): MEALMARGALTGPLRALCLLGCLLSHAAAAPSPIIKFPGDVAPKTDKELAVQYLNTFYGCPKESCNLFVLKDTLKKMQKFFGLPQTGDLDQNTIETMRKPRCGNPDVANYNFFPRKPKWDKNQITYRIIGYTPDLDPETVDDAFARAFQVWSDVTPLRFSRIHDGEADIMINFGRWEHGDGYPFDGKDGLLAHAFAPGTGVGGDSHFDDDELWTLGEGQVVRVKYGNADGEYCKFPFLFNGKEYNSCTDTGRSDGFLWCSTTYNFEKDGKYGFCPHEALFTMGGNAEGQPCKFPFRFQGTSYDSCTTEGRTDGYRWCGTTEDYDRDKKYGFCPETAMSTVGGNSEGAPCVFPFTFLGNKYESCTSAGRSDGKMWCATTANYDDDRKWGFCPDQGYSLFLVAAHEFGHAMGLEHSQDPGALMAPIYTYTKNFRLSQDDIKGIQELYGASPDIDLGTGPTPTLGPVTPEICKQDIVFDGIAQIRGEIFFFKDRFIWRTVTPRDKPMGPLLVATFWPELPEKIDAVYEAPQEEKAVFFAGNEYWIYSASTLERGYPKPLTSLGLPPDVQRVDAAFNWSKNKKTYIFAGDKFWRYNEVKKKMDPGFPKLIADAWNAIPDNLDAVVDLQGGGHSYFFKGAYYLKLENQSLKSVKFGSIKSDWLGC
Chain of 26S proteasome non-ATPase regulatory subunit 14 (O00487 whole entry): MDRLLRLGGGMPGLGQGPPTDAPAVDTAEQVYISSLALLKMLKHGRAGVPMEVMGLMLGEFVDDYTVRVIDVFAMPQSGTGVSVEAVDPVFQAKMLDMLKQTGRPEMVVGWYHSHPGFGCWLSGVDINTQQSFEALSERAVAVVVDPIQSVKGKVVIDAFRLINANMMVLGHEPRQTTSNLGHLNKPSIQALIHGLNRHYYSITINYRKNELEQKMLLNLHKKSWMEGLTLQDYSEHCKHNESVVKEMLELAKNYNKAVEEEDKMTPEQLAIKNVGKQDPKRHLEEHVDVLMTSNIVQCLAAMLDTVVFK
Chain of DNA (cytosine-5)-methyltransferase 1 (P26358 whole entry): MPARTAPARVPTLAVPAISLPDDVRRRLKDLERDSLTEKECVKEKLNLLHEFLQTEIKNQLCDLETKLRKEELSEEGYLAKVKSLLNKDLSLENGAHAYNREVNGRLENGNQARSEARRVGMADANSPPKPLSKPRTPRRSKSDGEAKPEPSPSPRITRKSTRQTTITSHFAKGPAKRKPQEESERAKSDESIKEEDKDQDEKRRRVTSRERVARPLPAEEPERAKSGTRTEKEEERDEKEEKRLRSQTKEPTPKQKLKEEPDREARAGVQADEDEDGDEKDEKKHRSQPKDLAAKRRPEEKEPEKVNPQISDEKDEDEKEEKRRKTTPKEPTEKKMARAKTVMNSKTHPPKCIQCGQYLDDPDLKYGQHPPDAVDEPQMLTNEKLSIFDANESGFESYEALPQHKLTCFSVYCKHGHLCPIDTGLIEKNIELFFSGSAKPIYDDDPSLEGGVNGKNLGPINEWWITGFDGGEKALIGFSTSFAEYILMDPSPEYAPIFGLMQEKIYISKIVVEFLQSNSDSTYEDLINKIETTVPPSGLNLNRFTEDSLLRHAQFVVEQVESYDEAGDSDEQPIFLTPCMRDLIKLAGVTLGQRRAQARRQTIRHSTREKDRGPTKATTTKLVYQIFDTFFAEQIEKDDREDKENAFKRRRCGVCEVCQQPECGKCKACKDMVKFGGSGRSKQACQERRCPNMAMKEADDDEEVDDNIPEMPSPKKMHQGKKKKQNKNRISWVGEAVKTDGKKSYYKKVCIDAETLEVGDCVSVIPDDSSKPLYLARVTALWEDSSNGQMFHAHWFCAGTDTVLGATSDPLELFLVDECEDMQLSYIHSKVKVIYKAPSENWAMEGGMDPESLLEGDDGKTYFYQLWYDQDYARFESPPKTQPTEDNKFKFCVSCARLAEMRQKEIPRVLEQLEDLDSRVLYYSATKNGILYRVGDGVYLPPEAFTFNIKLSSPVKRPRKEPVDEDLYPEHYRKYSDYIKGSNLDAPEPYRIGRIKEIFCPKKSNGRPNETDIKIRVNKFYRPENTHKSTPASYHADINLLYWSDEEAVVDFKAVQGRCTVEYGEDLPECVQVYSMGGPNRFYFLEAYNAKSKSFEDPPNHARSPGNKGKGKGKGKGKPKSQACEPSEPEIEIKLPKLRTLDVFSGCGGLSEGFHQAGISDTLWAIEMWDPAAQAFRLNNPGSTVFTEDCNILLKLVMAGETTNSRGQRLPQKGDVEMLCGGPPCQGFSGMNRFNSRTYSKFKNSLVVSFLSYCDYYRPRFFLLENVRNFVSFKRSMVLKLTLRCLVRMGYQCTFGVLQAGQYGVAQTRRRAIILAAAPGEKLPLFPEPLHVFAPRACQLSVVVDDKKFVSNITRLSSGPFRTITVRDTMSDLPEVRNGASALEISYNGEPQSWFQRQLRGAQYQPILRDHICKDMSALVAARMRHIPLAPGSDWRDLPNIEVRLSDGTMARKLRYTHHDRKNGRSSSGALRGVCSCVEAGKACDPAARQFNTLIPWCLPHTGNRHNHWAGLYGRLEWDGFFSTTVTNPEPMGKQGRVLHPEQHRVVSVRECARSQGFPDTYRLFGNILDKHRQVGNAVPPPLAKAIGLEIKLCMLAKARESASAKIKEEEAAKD
Chain of Large T antigen (P03070 whole entry): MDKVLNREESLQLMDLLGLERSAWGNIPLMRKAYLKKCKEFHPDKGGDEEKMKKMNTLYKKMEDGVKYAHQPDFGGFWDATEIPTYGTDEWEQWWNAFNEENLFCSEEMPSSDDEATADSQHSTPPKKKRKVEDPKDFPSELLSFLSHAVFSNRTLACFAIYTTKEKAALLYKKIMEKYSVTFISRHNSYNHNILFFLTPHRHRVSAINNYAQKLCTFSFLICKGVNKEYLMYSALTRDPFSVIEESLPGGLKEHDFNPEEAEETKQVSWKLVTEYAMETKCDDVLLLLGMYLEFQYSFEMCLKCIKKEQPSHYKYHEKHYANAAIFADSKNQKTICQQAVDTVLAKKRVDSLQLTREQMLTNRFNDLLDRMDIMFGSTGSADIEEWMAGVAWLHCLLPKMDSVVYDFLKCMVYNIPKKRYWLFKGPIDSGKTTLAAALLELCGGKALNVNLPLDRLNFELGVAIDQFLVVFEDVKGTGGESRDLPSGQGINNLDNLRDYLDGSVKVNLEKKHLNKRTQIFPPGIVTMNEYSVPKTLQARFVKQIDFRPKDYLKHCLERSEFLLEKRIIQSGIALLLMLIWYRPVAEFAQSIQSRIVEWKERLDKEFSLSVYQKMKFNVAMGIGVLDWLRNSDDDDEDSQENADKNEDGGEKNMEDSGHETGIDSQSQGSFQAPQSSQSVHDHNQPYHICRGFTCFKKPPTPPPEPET

With `COC(=O)c1c(-c2cccnc2)csc1NC(=O)c1ccc2c(c1)OCO2`, the IC50 (as a rule, the concentration that gives 50% inhibition) in [1] is > 100 µM (inactive); in assay [2], 37.5 µM (active); on Prothrombin, 96.1 µM (active). Also, the EC50 (in general, the concentration at which the effect is half-maximal) in [3] was 8.11 µM (active); in [4], 0.77 µM (active).
Consider `COc1cc(/C=C2\SC(c3ccc(C)cc3)=NC2=O)cc(OC)c1O`, for which the IC50 was 42.1 µM (active) in assay [1]; 2.18 µM (active) in [2]; 63.1 µM (inactive) in [5]; 1.37 µM (active) at Prothrombin; 16.5 µM (active) at Large T antigen.
`Cc1ccc(-n2ncc3c(NNC(=O)c4ccco4)ncnc32)cc1C`: the results for the EC50 in [6], in assay [7] and in [8] were 142 µM (active), 6.81 µM (active) and > 300 µM (not active), respectively.
For the compound `Cc1ccc(OCC(=O)N(Cc2nnc(-c3ccccc3Cl)o2)C2CC2)cc1C`, the IC50 in assay [9] was 31.9 µM (active).
As for `COc1ccccc1-c1cc(C(=O)Nc2cc(C)nn2-c2ccccc2)no1`, the figures for the IC50 (in assay [1]; in [2]; on Prothrombin) were > 100 µM (inactive), 36 µM (active) and > 100 µM (inactive), respectively.
Turning to `O=C(O)CN1C(=O)/C(=C\c2cc(Br)ccc2OCc2ccccc2Cl)SC1=S`, the EC50 on Streptokinase A is > 150 µM (not active); with Streptococcus, 5.9 µM (active); in assay [10] it was 1.97 µM (active). The results for the IC50 (at Genome polyprotein; in [11]) were 24.3 µM (active) and 4.7 µM (active), respectively.
For `O=C(CNC(=O)c1ccc([N+](=O)[O-])cc1)N/N=C\c1ccc(OC(=O)c2ccccc2)cc1`, the IC50 in [11] was > 99 µM (inactive).
As for `C/C(=N\NC(=O)c1ccc(Cl)c(Cl)c1)c1ccccn1`, the IC50 in [12] was > 80 µM (inactive); at Nonstructural protein 1, 3.03 µM (active); in [19] it was 0.563 µM (active). Besides, the AC50 – broadly, the midpoint of the concentration-response curve, whichever way the signal moves – in the assay with INS1 was 0.278 µM (active). Further, the EC50 with BJ [13] was 1.37 µM (active); in the assay with Streptococcus, 1.84 µM (active); in [14] it was 1.01 µM (active); in [10], 0.099 µM (active); with BJ [15], 0.674 µM (inconclusive); in [16] it was 0.656 µM (active). Also, the EC50 was 0.38 µM (inconclusive) with BJ [17] and 0.125 µM (active) in [18].
